Laboratory results taken from PubChem BioAssay (NCI).
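Five compound concentrations were applied to cells in 96-well plates for 48 hours; endpoints were derived by simple linear interpolation of the resulting dose-response curve. GI50 marks 50% less growth. TGI: total growth inhibition.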

How the values were obtained:
Experiment in all cases: NCI-60 cell line screen, 48 h
ACHN renal = system: ACHN renal
OVCAR-4 ovarian = system: OVCAR-4 ovarian
PC-3 prostate = system: PC-3 prostate
A549 NSCLC = system: A549 NSCLC
KM12 colon = system: KM12 colon
SF-295 CNS = system: SF-295 CNS
UACC-257 melanoma = system: UACC-257 melanoma
SNB-19 CNS = system: SNB-19 CNS
LOX IMVI melanoma = system: LOX IMVI melanoma

Structure (SMILES)	TGI (ACHN renal)	TGI (OVCAR-4 ovarian)	TGI (PC-3 prostate)	TGI (A549 NSCLC)	TGI (KM12 colon)	TGI (SF-295 CNS)	TGI (UACC-257 melanoma)	TGI (SNB-19 CNS)	TGI (LOX IMVI melanoma)	GI50 (ACHN renal)	GI50 (OVCAR-4 ovarian)	GI50 (PC-3 prostate)	GI50 (LOX IMVI melanoma)	GI50 (A549 NSCLC)	GI50 (KM12 colon)	GI50 (SF-295 CNS)	GI50 (UACC-257 melanoma)
O=C(NC(COC(=O)C(Cc1ccccc1)NC(=O)c1ccccc1)Cc1ccccc1)c1ccccc1 (stereo unspecified)	> 50 µM	> 50 µM	> 50 µM	> 50 µM	> 50 µM	> 50 µM	> 50 µM	> 50 µM									
CC(C)(C)OC(=O)NCCC(N)=S	> 100 µM		> 100 µM	> 100 µM	> 100 µM	> 100 µM	> 100 µM	> 100 µM									
C[C@@H]1S[C@H](c2ccccc2F)N2Cc3ccccc3N=C12	> 100 µM	85.4 µM	97.1 µM	> 100 µM	> 100 µM	> 100 µM	85.7 µM	> 100 µM	38.1 µM								
Oc1[nH]c2ccc(Br)cc2c1N=NC(=S)Nc1ccc(F)cc1	18 µM	25.7 µM	39.1 µM		30.5 µM	21.8 µM	43 µM		27.1 µM								
CCOC(CNCCC(=O)OC)OCC	> 10 µM	> 10 µM	> 10 µM	> 10 µM	> 10 µM	> 10 µM	> 10 µM	> 10 µM	> 10 µM								
CC1=C2C(=C[C@H]3[C@]4(C)CCCC(C)(C)[C@H]4CC[C@]34O[C@H]24)OC1=O	> 100 µM	> 100 µM	> 100 µM	> 100 µM	> 100 µM	> 100 µM	> 100 µM	> 100 µM									
CCc1c[n+]([O-])c(C)cc1[N+](=O)[O-]	47.3 µM		> 100 µM	> 100 µM	> 100 µM	> 100 µM	> 100 µM	> 100 µM	> 100 µM								
COc1cc2nc(-c3cccs3)oc(=O)c2cc1OC	> 100 µM	> 100 µM	> 100 µM	> 100 µM	> 100 µM	> 100 µM	> 100 µM	> 100 µM	> 100 µM								
COc1cc2cc(Oc3ccc(NC(=O)c4cc(C(F)(F)F)cc(C(F)(F)F)c4)cc3)c(C)nc2cc1OC	> 50 µM	> 50 µM	> 50 µM	> 50 µM	> 50 µM	> 50 µM	> 50 µM		> 50 µM	2.27 µM	4.53 µM	1.66 µM	47 µM	3.08 µM	2.79 µM	1.64 µM	4.07 µM
COC(=O)CN1c2nc(C#N)c(C#N)nc2N(CC(=O)OC)c2nc(C#N)c(C#N)nc21	5.72 µM	17.3 µM	18.4 µM	> 82.8 µM	27.8 µM	43.5 µM	> 100 µM	> 65.9 µM	> 20.1 µM								
COC(=O)CCc1cc(OC)c2c(c1)[C@H](C(=O)OC)[C@@H](c1ccc(O)c(OC)c1)O2	> 100 µM	> 100 µM	> 100 µM	> 100 µM	> 100 µM	> 100 µM	> 100 µM	> 100 µM	> 100 µM								
CC(=O)Oc1cc(C(F)(F)F)ccc1C(=O)OC1(C)OC(=O)c2ccc(C(F)(F)F)cc2O1 (stereo unspecified)	> 100 µM	> 100 µM	> 100 µM	> 100 µM	> 100 µM	> 100 µM	> 100 µM	> 100 µM	> 100 µM								
S=c1[nH]c2ccc(Br)cc2c(=S)s1	56.7 µM	38.6 µM	49.8 µM	> 100 µM	> 100 µM	85.1 µM	69.5 µM	> 100 µM	> 100 µM								
CCCCn1cnc2c(c(CC#N)nn2-c2ccccc2)c1=N	> 100 µM	> 100 µM	> 100 µM	> 100 µM	> 100 µM	> 100 µM	> 100 µM	> 100 µM	> 100 µM								
Cc1ccc(OCCn2cc(Nc3ccccc3)c(=O)n(CCOc3ccc(C)cc3)c2=O)cc1	> 100 µM	> 100 µM	> 100 µM	> 100 µM	> 100 µM	> 100 µM	> 100 µM	> 100 µM	> 100 µM								
CCOC(=O)c1nc2ccc(C(F)(F)F)cc2nc1Oc1ccc(C#N)cc1	> 100 µM	83.8 µM	36 µM		> 100 µM	31.5 µM	65.8 µM	35.3 µM	> 100 µM								
CC(=O)O[C@H]1C(=O)[C@@]2(C)[C@H]([C@H](OC(=O)c3ccc(F)cc3)[C@]3(O)C[C@H](OC(=O)[C@H](O)[C@@H](NC(=O)c4ccccc4)c4ccccc4)C(C)=C1C3(C)C)[C@]1(OC(C)=O)CO[C@@H]1C[C@@H]2O	> 25 µM	> 25 µM		> 25 µM	> 25 µM	> 6.59 µM	> 25 µM	> 25 µM	5.56 µM								
C(=Nc1ccc(-c2nc3ccccc3o2)cc1)c1ccco1	> 100 µM	> 100 µM	> 100 µM				> 100 µM	> 100 µM	> 100 µM								
NNC1=N/C(=C\c2ccco2)C(Cl)=N1	> 100 µM	75.8 µM	> 100 µM	> 100 µM	> 100 µM	> 100 µM	> 100 µM	> 100 µM	70.8 µM								
COc1ccc(-c2oc(/C=N/NC(N)=S)c([N+](=O)[O-])c2-c2ccc(OC)c(OC)c2)cc1OC	76.3 µM	61.6 µM		> 100 µM		53.4 µM	> 100 µM	97 µM	66 µM								
CCCCNC(=S)N/N=C/c1cccc(C)n1	68 µM	> 100 µM	> 100 µM	> 100 µM	> 100 µM	> 100 µM	> 100 µM	> 100 µM	> 100 µM								
COC(C)(C)[C@@H](O)[C@H]1C[C@H](C)[C@@]2(CC[C@]3(C)[C@@H]2CC[C@@H]2[C@@]4(C)CC[C@@H](OC(C)=O)C(C)(C)[C@@H]4C[C@@H](OC4OC(COC(C)=O)C(O)C(O)C4O)[C@]23C)O1 (stereo partly specified)	18.3 µM	14.4 µM	8.1 µM	15.3 µM	3.62 µM	16.5 µM	20.9 µM	21.3 µM	14.9 µM								
